# Source: patent US20020137929A1, “1 - (3-heterocyclylphenyl) isothiourea, -isourea, -guanidine and -amidine herbicidal agents” (Intellectual Property Department, BASF Aktiengesellschaft, priority 1998, published 2002)
# Columns and labels:
# GLXMA (Soybean) [1] = assay: Postemergence herbicidal evaluation; format: in vivo, Glycine max
# How it was run: (§1)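 ~2-wk seedlings; postemergence spray, 40 psi; vehicle 1:1 acetone:water + 0.5% Tween 20; rate ≈0.0156–0.500 kg/ha; greenhouse hold; scored 4–5 wk after treatment, 0–9 scale vs control; repeat tests averaged.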
# MOOVA (Monochoria) = assay: Postemergence weed control under flooded paddy conditions; format: in vivo, Monochoria vaginalis; conditions: postemergence weeds
# How it was run: (§2)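 With weeds 3 to 5 cm tall and rice at the 1.5 to 2.5 leaf stage, containers were flooded and water held 1.5 to 3 cm above soil. Compounds in 50/50 v/v aqueous/acetone went into the flood water at about 0.0313 to 0.500 kg/ha a.i. Effects were visually rated 0–9 against controls after three to four weeks in the greenhouse.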
# GLXMA (Soybean) [2] = assay: Preemergence herbicidal evaluation; format: in vivo, Glycine max; conditions: rated 4-5 weeks after treatment
# How it was run: (§3)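 Seeds were planted in potting soil in cups, then sprayed preemergence with the test compound in aqueous acetone at about 0.0156 to 0.500 kg per hectare. Cups were kept under greenhouse conditions and visually rated 4–5 weeks after treatment on a 0–9 scale against an untreated control.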
# [3] = tested on: IPOSS (Morningglory Spp.); assay: Preemergence herbicidal evaluation; format: in vivo, Ipomoea Spp.; conditions: rated 4-5 weeks after treatment
# How it was run: as §3
# CYPIR (Rice Flatsedge) = assay: Postemergence weed control under flooded paddy conditions; format: in vivo, Cyperus iria; conditions: postemergence weeds
# How it was run: as §2
# [4] = tested on: ECHORC (Watergrass (Calif.)); assay: as above; format: in vivo, Echinochloa oryzoides; conditions: postemergence weeds
# How it was run: as §2
# [5] = tested on: IPOSS (Morningglory Spp.); assay: Postemergence herbicidal evaluation; format: in vivo, Ipomoea Spp.
# How it was run: as §1
# [6] = rate 0.0313 kg/ha, 3-4 weeks after treatment
# [7] = rate 0.0625 kg/ha, 3-4 weeks after treatment
# [8] = rate 0.1250 kg/ha, 3-4 weeks after treatment
# [9] = rate 0.2500 kg/ha, 3-4 weeks after treatment
# [10] = rate 0.5000 kg/ha, 3-4 weeks after treatment
# [11] = Rate 0.0313 kg/ha, rated 3 to 4 weeks after treatment
# [12] = Rate 0.0625 kg/ha, rated 3 to 4 weeks after treatment
# [13] = Rate 0.1250 kg/ha, rated 3 to 4 weeks after treatment
# [14] = Rate 0.2500 kg/ha, rated 3 to 4 weeks after treatment
compound,measurement,setting,value
CC1SC(=Nc2cc(N3C(=O)C4=C(CCCC4)C3=O)c(F)cc2Cl)N(C)C1=O (stereo not shown) [Compound 4],GLXMA herbicidal rating,GLXMA (Soybean) [1]; rate 0.0313 kg/ha,2.0
same,GLXMA herbicidal rating,GLXMA (Soybean) [1]; rate 0.0625 kg/ha,2.5
same,GLXMA herbicidal rating,GLXMA (Soybean) [1]; rate 0.1250 kg/ha,4.5
same,GLXMA herbicidal rating,GLXMA (Soybean) [1]; rate 0.2500 kg/ha,4.5
same,GLXMA herbicidal rating,GLXMA (Soybean) [1]; rate 0.5000 kg/ha,4.5
same,Herbicidal rating MOOVA,MOOVA (Monochoria); [6],1.0
same,Herbicidal rating MOOVA,MOOVA (Monochoria); [7],3.5
same,Herbicidal rating MOOVA,MOOVA (Monochoria); [8],4.0
same,Herbicidal rating MOOVA,MOOVA (Monochoria); [9],5.5
same,Herbicidal rating MOOVA,MOOVA (Monochoria); [10],8.0
same,GLXMA preemergence herbicidal rating,GLXMA (Soybean) [2]; rate 0.1250 kg/ha,0.0
same,GLXMA preemergence herbicidal rating,GLXMA (Soybean) [2]; rate 0.2500 kg/ha,2.0
same,GLXMA preemergence herbicidal rating,GLXMA (Soybean) [2]; rate 0.5000 kg/ha,4.0
same,IPOSS preemergence herbicidal rating,[3]; rate 0.1250 kg/ha,0.0
same,IPOSS preemergence herbicidal rating,[3]; rate 0.2500 kg/ha,2.0
same,IPOSS preemergence herbicidal rating,[3]; rate 0.5000 kg/ha,9.0
same,Herbicidal rating CYPIR,CYPIR (Rice Flatsedge); [6],0.0
same,Herbicidal rating CYPIR,CYPIR (Rice Flatsedge); [7],2.0
same,Herbicidal rating CYPIR,CYPIR (Rice Flatsedge); [8],4.5
same,Herbicidal rating CYPIR,CYPIR (Rice Flatsedge); [9],6.5
same,Herbicidal rating CYPIR,CYPIR (Rice Flatsedge); [10],9.0
same,Herbicidal rating ECHORC,[4]; [6],1.0
same,Herbicidal rating ECHORC,[4]; [7],2.0
same,Herbicidal rating ECHORC,[4]; [8],3.5
same,Herbicidal rating ECHORC,[4]; [9],4.0
same,Herbicidal rating ECHORC,[4]; [10],5.0
same,IPOSS herbicidal rating,[5]; rate 0.0313 kg/ha,0.0
same,IPOSS herbicidal rating,[5]; rate 0.0625 kg/ha,0.0
same,IPOSS herbicidal rating,[5]; rate 0.1250 kg/ha,0.0
same,IPOSS herbicidal rating,[5]; rate 0.2500 kg/ha,1.0
same,IPOSS herbicidal rating,[5]; rate 0.5000 kg/ha,4.0
"CCOC(=O)CN1C(=O)C(Cc2ccccc2OC(C)C(=O)O)S/C1=N/c1cc(-n2c(=O)cc(C(F)(F)F)n(C)c2=O)c(F)cc1Cl (stereo not shown) [Compound 114, 5-[o-(1-Carboxyethoxy)benzyl]-2-{{2-chloro-5-[3,6-dihydro-3-methyl-2,6-dioxo-4-(trifluoromethyl)-1(2H)-pyrimidinyl]-4-fluorophenyl}imino}-4-oxo-3-thiazolidineacetic acid, 3-ethyl ester]",Herbicidal rating MOOVA,MOOVA (Monochoria); [11],6.0
same,Herbicidal rating MOOVA,MOOVA (Monochoria); [12],8.0
same,Herbicidal rating MOOVA,MOOVA (Monochoria); [13],9.0
same,Herbicidal rating MOOVA,MOOVA (Monochoria); [14],9.0
same,Herbicidal rating CYPIR,CYPIR (Rice Flatsedge); [11],0.0
same,Herbicidal rating CYPIR,CYPIR (Rice Flatsedge); [12],0.0
same,Herbicidal rating CYPIR,CYPIR (Rice Flatsedge); [13],4.0
same,Herbicidal rating CYPIR,CYPIR (Rice Flatsedge); [14],7.0
same,Herbicidal rating ECHORC,[4]; [11],0.0
same,Herbicidal rating ECHORC,[4]; [12],0.0
same,Herbicidal rating ECHORC,[4]; [13],0.0
same,Herbicidal rating ECHORC,[4]; [14],0.0
